{"source": "patent US9932637B2", "about": "“Genetic polymorphisms associated with cardiovascular disorders and drug response, methods of detection and uses thereof” (CELERA CORPORATION, priority 2003, dated 2018)", "system": "patients with prior myocardial infarction (CARE study)", "test": "CARE aligned analysis (prospective and case/control design, white males): association of genotypes with pravastatin efficacy (Tables 13, 15)", "type": "in vivo, human", "details": "for Pravastatin Patients n/total: WM", "method": "The data presented in Table 8 based on an association of genotypes with pravastatin efficacy of the CARE samples were further analyzed and presented in Table 13. The further analysis was performed to align the data obtained from the analysis of the CARE samples, which was a prospective study, to the analysis of the WOSCOP samples, which was a case/control study. Table 13 also presents an analysis of the association of genotypes with pravastatin efficacy in the WOSCOPs samples. Relative to the analysis performed on the data presented in Table 8, there are two significant differences to determine if the SNP influenced pravastatin efficacy. Data obtained from the CARE samples were separated by study design into two groups, those in the prospective study design group and those in the case/control study design group. The original care study contained 16 protocol defined cardiovascular disease defined endpoints and 150 other phenotypes. […] The control groups used to compare the data were also divided into two groups, the “all possible” control group and the “cleaner” control group. […] Because the participants in the WOSCOPs trial were all white males, only data obtained from white males in the CARE study were analysed. Data from the “all possible” and “cleaner” controls were compared to data obtained from the cases in the prospective study design while only data from “cleaner” controls were compared to cases in the case/control study design. The data from the case/control cohorts were analysed using conditional logistic regression (as opposed to logistic regression used for the original anaylsis).\nThe anaylsis was refined as described for both Tables 13 and 14.", "key": {"[1]": {"details": "PRKCQ hCV15954277, CARE, Case/Control, F MI/SD/NF MI"}, "[2]": {"details": "PRKCQ hCV15954277, CARE, Prospective, F MI/SD/NF MI"}, "[3]": {"details": "SERPINA5 hCV9596963, CARE Case/Control, F MI/SD/NF MI"}, "[4]": {"details": "SN hCV25623265, CARE Case/Control, F MI/SD/NF MI"}, "[5]": {"details": "SN hCV25623265, CARE Prospective, F MI/SD/NF MI"}, "[6]": {"details": "TAP1 hCV549926, CARE Case/Control, F MI/SD/NF MI"}, "[7]": {"details": "TAP1 hCV549926, CARE Prospective, F MI/SD/NF MI"}, "[8]": {"details": "TIMP2 hCV25629888, CARE Case/Control, F MI/SD/NF MI"}, "[9]": {"details": "TNF hCV7514879, CARE Case/Control, F MI/SD/NF MI"}, "[10]": {"details": "TNF hCV7514879, CARE Prospective, F MI/SD/NF MI"}, "[11]": {"details": "VTN hCV2536595, CARE Case/Control, F MI/SD/NF MI"}, "[12]": {"details": "VTN hCV2536595, CARE Prospective, F MI/SD/NF MI"}}, "note": "Several values for one entry are separate records, joined by “and”; a condition that tells them apart may be missing. Identical values can stand only once."}
{"smiles": "CC[C@H](C)C(=O)O[C@H]1C[C@H](O)C=C2C=C[C@H](C)[C@H](CC[C@@H](O)C[C@@H](O)CC(=O)O)[C@H]21", "note": "[pravastatin]", "values": [{"measurement": "n/total (%) cases, Pravastatin Patients, 2 Rare Alleles", "setting": "PON1 hCV2548962, 2 rare alleles, CARE Prospective, Total CHD Events, All Possible controls, White Males", "result": "18/107 (16.8%)"}, {"measurement": "Pravastatin Patients n/total", "setting": "PPOX hCV25922816, 0 Rare Alleles, CARE Prospective, F&NF MI, Cleaner controls", "result": "116/721"}, {"measurement": "Pravastatin Patients n/total", "setting": "PPOX hCV25922816, 1 Rare Allele, CARE Case/Control, F&NF MI, All Possible controls", "result": "10/164"}, {"measurement": "Pravastatin Patients n/total", "setting": "PPOX hCV25922816, 1 Rare Allele, CARE Prospective, F&NF MI, All Possible controls", "result": "10/169"}, {"measurement": "Pravastatin Patients n/total", "setting": "PPOX hCV25922816, 1 Rare Allele, CARE Prospective, F&NF MI, Cleaner controls", "result": "10/113"}, {"measurement": "2 Rare Alleles (%), Pravastatin Patients", "setting": "PPOX hCV25922816, CARE Case/Control, F&NF MI", "result": "(16.7%)"}, {"measurement": "2 Rare Alleles (%), Pravastatin Patients", "setting": "PPOX hCV25922816, CARE Prospective, F&NF MI", "result": "(16.7%)"}, {"measurement": "2 rare alleles n/total (%), pravastatin patients", "setting": "[1]", "result": "(11.2%)"}, {"measurement": "Pravastatin vs placebo odds ratio, 0 rare alleles", "setting": "[1]", "result": 0.58}, {"measurement": "Pravastatin vs placebo odds ratio, 1 rare allele", "setting": "[1]", "result": 1.04}, {"measurement": "Pravastatin vs placebo odds ratio, 2 rare alleles", "setting": "[1]", "result": 3.15}, {"measurement": "Pravastatin vs placebo odds ratio, 0 rare alleles", "setting": "[2]", "result": "0.57 and 0.56"}, {"measurement": "Pravastatin vs placebo odds ratio, 1 rare allele", "setting": "[2]", "result": "1.08 and 0.85"}, {"measurement": "Pravastatin vs placebo odds ratio, 2 rare alleles", "setting": "[2]", "result": "3.38 and 2.80"}, {"measurement": "2 Rare Alleles (%), Pravastatin Patients", "setting": "SELL hCV16172571, CARE Case/Control, F&NF MI", "result": "(14.3%)"}, {"measurement": "2 Rare Alleles (%), Pravastatin Patients", "setting": "SELL hCV16172571, CARE Prospective, F&NF MI", "result": "(12.9%)"}, {"measurement": "2 Rare Alleles (%), Pravastatin Patients", "setting": "SELL hCV25474627, CARE Case/Control, F&NF MI", "result": "(14.8%)"}, {"measurement": "2 Rare Alleles (%), Pravastatin Patients", "setting": "SELL hCV25474627, CARE Prospective, F&NF MI", "result": "(13.3%)"}, {"measurement": "2 Rare Alleles (%), Pravastatin Patients", "setting": "SERPINA1 hCV25640504, CARE Case/Control, F&NF MI", "result": "(8.6%)"}, {"measurement": "2 Rare Alleles (%), Pravastatin Patients", "setting": "SERPINA1 hCV25640504, CARE Prospective, F&NF MI", "result": "(8.4%)"}, {"measurement": "2 Rare Alleles (%), Pravastatin Patients", "setting": "[3]", "result": "(15.1%)"}, {"measurement": "2 Rare Alleles n/total, Pravastatin Patients", "setting": "[3]", "result": "21/139"}, {"measurement": "Pravastatin vs placebo odds ratio, 0 rare alleles", "setting": "[3]", "result": 0.89}, {"measurement": "Pravastatin vs placebo odds ratio, 1 rare allele", "setting": "[3]", "result": 0.57}, {"measurement": "Pravastatin vs placebo odds ratio, 2 rare alleles", "setting": "[3]", "result": 1.72}, {"measurement": "2 Rare Alleles (%), Pravastatin Patients", "setting": "SERPINI2 hCV370782, CARE Case/Control, F&NF MI", "result": "(16.2%)"}, {"measurement": "2 Rare Alleles (%), Pravastatin Patients", "setting": "SERPINI2 hCV370782, CARE Prospective, F&NF MI", "result": "(15.8%)"}, {"measurement": "2 Rare Alleles (%), Pravastatin Patients", "setting": "[4]", "result": "(7.5%)"}, {"measurement": "2 Rare Alleles n/total, Pravastatin Patients", "setting": "[4]", "result": "13/173"}, {"measurement": "Pravastatin vs placebo odds ratio, 0 rare alleles", "setting": "[4]", "result": 0.71}, {"measurement": "Pravastatin vs placebo odds ratio, 1 rare allele", "setting": "[4]", "result": 1.02}, {"measurement": "Pravastatin vs placebo odds ratio, 2 rare alleles", "setting": "[4]", "result": 0.30}, {"measurement": "2 Rare Alleles (%), Pravastatin Patients", "setting": "[5]", "result": "(7.5%)"}, {"measurement": "2 Rare Alleles n/total, Pravastatin Patients", "setting": "[5]", "result": "13/174"}, {"measurement": "Pravastatin vs placebo odds ratio, 0 rare alleles", "setting": "[5]", "result": 0.72}, {"measurement": "Pravastatin vs placebo odds ratio, 1 rare allele", "setting": "[5]", "result": 0.98}, {"measurement": "Pravastatin vs placebo odds ratio, 2 rare alleles", "setting": "[5]", "result": 0.31}, {"measurement": "2 Rare Alleles n/total, Pravastatin Patients", "setting": "[6]", "result": "1/36 and 1/25"}, {"measurement": "Pravastatin vs placebo odds ratio, 0 rare alleles", "setting": "[6]", "result": "0.98 and 0.89"}, {"measurement": "Pravastatin vs placebo odds ratio, 1 rare allele", "setting": "[6]", "result": "0.61 and 0.56"}, {"measurement": "Pravastatin vs placebo odds ratio, 2 rare alleles", "setting": "[6]", "result": 0.08}, {"measurement": "2 Rare Alleles n/total, Pravastatin Patients", "setting": "[7]", "result": "1/36 and 1/25"}, {"measurement": "Pravastatin vs placebo odds ratio, 0 rare alleles", "setting": "[7]", "result": "1.00 and 0.88"}, {"measurement": "Pravastatin vs placebo odds ratio, 1 rare allele", "setting": "[7]", "result": "0.60 and 0.55"}, {"measurement": "Pravastatin vs placebo odds ratio, 2 rare alleles", "setting": "[7]", "result": "0.09 and 0.08"}, {"measurement": "2 Rare Alleles (%), Pravastatin Patients", "setting": "[8]", "result": "(29.2%)"}, {"measurement": "2 Rare Alleles n/total, Pravastatin Patients", "setting": "[8]", "result": "7/24"}, {"measurement": "Pravastatin vs placebo odds ratio, 0 rare alleles", "setting": "[8]", "result": 0.76}, {"measurement": "Pravastatin vs placebo odds ratio, 1 rare allele", "setting": "[8]", "result": 0.56}, {"measurement": "Pravastatin vs placebo odds ratio, 2 rare alleles", "setting": "[8]", "result": 6.81}, {"measurement": "2 Rare Alleles (%), Pravastatin Patients", "setting": "[9]", "result": "(8.8%)"}, {"measurement": "2 Rare Alleles n/total, Pravastatin Patients", "setting": "[9]", "result": "3/34"}, {"measurement": "Pravastatin vs placebo odds ratio, 0 rare alleles", "setting": "[9]", "result": 0.87}, {"measurement": "Pravastatin vs placebo odds ratio, 1 rare allele", "setting": "[9]", "result": 0.52}, {"measurement": "Pravastatin vs placebo odds ratio, 2 rare alleles", "setting": "[9]", "result": 0.14}, {"measurement": "2 Rare Alleles (%), Pravastatin Patients", "setting": "TNF hCV7514879, CARE Case/Control, F&NF MI", "result": "(8.8%)"}, {"measurement": "2 Rare Alleles (%), Pravastatin Patients", "setting": "[10]", "result": "(8.6%)"}, {"measurement": "2 Rare Alleles n/total, Pravastatin Patients", "setting": "[10]", "result": "3/35"}, {"measurement": "Pravastatin vs placebo odds ratio, 0 rare alleles", "setting": "[10]", "result": 0.88}, {"measurement": "Pravastatin vs placebo odds ratio, 1 rare allele", "setting": "[10]", "result": 0.50}, {"measurement": "Pravastatin vs placebo odds ratio, 2 rare alleles", "setting": "[10]", "result": 0.12}, {"measurement": "2 Rare Alleles (%), Pravastatin Patients", "setting": "TNF hCV7514879, CARE Prospective, F&NF MI", "result": "(8.6%)"}, {"measurement": "2 Rare Alleles n/total, Pravastatin Patients", "setting": "[11]", "result": "21/260 and 21/168"}, {"measurement": "Pravastatin vs placebo odds ratio, 0 rare alleles", "setting": "[11]", "result": "1.51 and 1.37"}, {"measurement": "Pravastatin vs placebo odds ratio, 1 rare allele", "setting": "[11]", "result": "0.63 and 0.56"}, {"measurement": "Pravastatin vs placebo odds ratio, 2 rare alleles", "setting": "[11]", "result": "0.66 and 0.64"}, {"measurement": "2 Rare Alleles (%), Pravastatin Patients", "setting": "[12]", "result": "(7.9%)"}, {"measurement": "2 Rare Alleles n/total, Pravastatin Patients", "setting": "[12]", "result": "21/266 and 21/174"}, {"measurement": "Pravastatin vs placebo odds ratio, 0 rare alleles", "setting": "[12]", "result": "1.54 and 1.31"}, {"measurement": "Pravastatin vs placebo odds ratio, 1 rare allele", "setting": "[12]", "result": "0.65 and 0.58"}, {"measurement": "Pravastatin vs placebo odds ratio, 2 rare alleles", "setting": "[12]", "result": "0.63 and 0.61"}]}
